Data on 3 molecules can be found in patent US8350097B2, “Therapeutic compounds” (priority 2007, dated 2013).

The subject of series [1] is Male Sprague Dawley rats. Nature of the series: Test A. Loss of Righting Reflex Assay. It counts as in vivo, rat. Conditions: 7 mg/kg bolus in tail vein, 1% formulation. The procedure: The ability of a compound of the invention to produce a sedative or hypnotic effect can be determined using standard pharmacological models which are well known to the art.
Test A. Loss of Righting Reflex Assay
Male Sprague Dawley rats were restrained in a holder and injection test compounds were injected in the tail vein (based on mg test compound/kg body weight). Following administration, the rats were placed in dorsal recumbent position on a heating blanket. The time to onset for the loss of the Righting Reflex (RR-ability of rat to right itself) was recorded, as was the duration of the loss of the RR.

The nature of series [2]: Aqueous phase concentration in lipid emulsion (pain on injection surrogate), ultrafiltration + LC/MS/MS. It counts as physicochemical. Conditions: aqueous phase of 1% lipid emulsion separated by ultrafiltration. The method, then: The concentration of Compound 1 in the aqueous phase (aqueous phase concentration) of a lipid emulsion formulation was determined.
A one percent (1%) Compound 1 formulation was formulated in accordance with Example 5, Compound 1 being prepared as described in Example 2.

Series [3] can be described thus: Anesthetic effects in rats, bolus IV (LORR model of general anesthesia). The class given is in vivo, rat. Conditions: male, Sprague-Dawley, rat, in vivo, read-out: MTD (maximum tolerated dose). The method, then:
(§1) Also measured was minimum dose to achieve LORR and maximum tolerated dose (MTD).
(§2) The ranges of doses studied were 2, 3, 4, 7, 14 and 21 mg/kg for Compound 1 and 3.5, 4.0, 7.0 and 14.0 mg/kg for […].

The test system of series [4] is male Sprague-Dawley rats. The description is as above. The class given is in vivo, rat. The method, then: as §1, §2
The test system of series [5] is Beagle dogs. Nature of the series: Hemodynamic effects (blood pressure) in beagle dogs, bolus IV. The class given is in vivo, dog. Conditions: for MAP % change from baseline: 4 min after bolus IV. The procedure: The study was a crossover design. […] The MTD was defined as the dose that reduced mean arterial blood pressure (MAP) by 50% or to less than 50 millimeters of mercury (mmHg or mm Hg). All animals received supplemental oxygen and, if needed, ventilatory support after 4 min of apnea.
Hemodynamic data, such as mean arterial pressure (MAP), were recorded at baseline, 1, 2, 4, 8, 15, 20 and 30 min. Compound 1 was administered at 5, 10, 15 and 30 mg/kg to 6, 4, 3 and 3 dogs respectively. […] Data were analyzed with a 2-way ANOVA followed by t-test with Bonferroni correction for multiple comparisons.

Series [6] concerns commercial farm-bred swine. Nature of the series: Hemodynamic effects, blood gas and serum chemistry in anesthetized ventilated pigs, IV infusion. It counts as in vivo, pig. Conditions: IV infusion, Compound 1 0.6 mg/kg/min vs propofol 0.750 mg/kg/min. The procedure:
Anesthesia was induced with isoflurane. Intravascular access was obtained from an ear vein. Each pig was intubated and mechanically ventilated.
ECG was monitored throughout the study. […] Body temperature was maintained at 37° C.
Arterial blood gas samples from pigs infused with Compound 1 were taken and analyzed for blood gas and serum chemistry values.

Series [7] relates to Beagle dogs.
Series [8] relates to Male descented ferrets. Nature of the series: Anti-emetic activity in ferrets (morphine sulfate-induced emesis). The class given is in vivo, ferret. As to conditions: 6 ferrets, morphine sulfate 0.5 mg/kg subcutaneously alone, 45 min observation. The method, then:
Male descented ferrets weighing 1.0-1.5 kg with vascular access ports in the jugular vein were housed on a 12/12-hour light/dark cycle under controlled temperature, with food and water provided ad libitum. On each study day, food was presented to ferrets one hour prior to dosing. Immediately prior to dosing, food and water were removed. A 1% Compound 1 formulation, prepared as described in Example 2 and formulated in accordance with Example 5, or […] was administered by IV infusion to the ferrets; see Wynn R L et al, 1993, Eur J Pharmacol 241, 42 re […] administration in ferrets. After administration of Compound 1 or […], animals were placed in clean, transparent cages (with lids) and left unrestrained for a 45-min observation period by an observer blinded to the specific treatment administered.
Episodes of retching and/or vomiting were considered separate episodes when the interval between retches and/or vomits exceeded 5 sec.
After termination of the infusion, 0.5 mg/kg morphine sulfate was administered subcutaneously and the ferrets were monitored for 45 min as described above. Six additional ferrets were administered subcutaneously 0.5 mg/kg morphine sulfate only.

Molecules are shown by their SMILES. Entries after “also recorded” stand apart in the source; their conditions may differ. Read-outs that look alike come from different tables or passages of the source. Marks after values point to notes of the source that are not given here.

On to `CC(C)c1cccc(C(C)C)c1O` [propofol, 2,6-diisopropylphenol, reference compound], for which, in series [1], the “duration of anesthesia (loss of the Righting Reflex)” value came out at 7.1 min. In addition, the aqueous phase concentration in series [2] was determined as 6.28 ± 0.41 µg/mL. Also, the MTD in series [3] is below 14 mg/kg. In series [4], the “TI (therapeutic index; ratio of MTD to HD7 min)” value was below 2. Also, in series [4] (6 rats per dose group), the “production of LORR by dose” value is listed as “no LORR in 4 of 6 rats tested at 3.5 mg/kg”. Besides, the “MAP % change from baseline” value in series [5] (10 mg/kg) is −22%; in series [5] (15 mg/kg), −32%; in series [5] (30 mg/kg), −66%*. For the same molecule, the “effect on MAP, comparison” value in series [5] (bolus IV) is “significantly greater effect on MAP than does Compound 1; also recorded: significantly greater effect on MAP than did (S)-(+)-2-sec-butyl-6-isopropylphenol”. In series [6] (FIG. 3), the “decrease in MAP, comparison” value was “significantly larger decrease in MAP than Compound 1”. Further, the “lowest HR measured, comparison” value in series [6] (FIG. 4) is listed as “significantly lower than the lowest HR measured for Compound 1”. The “duration of anesthesia (sleep time)” value in series [7] (dog, in vivo, iv, 5 mg/kg) is listed as 13 min; in series [7] (dog, in vivo, iv, 10 mg/kg), 28 min; in series [7] (dog, in vivo, iv, 15 mg/kg) it was 43 min; in series [7] (dog, in vivo, iv, 30 mg/kg), 69 min. The “dogs reaching the MTD (MAP reduced by 50% or to less than 50 mmHg)” value in series [7] (dog, in vivo, iv, 15 mg/kg) is recorded as “Two of 3 dogs”.
Regarding `CN1CC[C@]23c4c5ccc(O)c4O[C@H]2[C@@H](O)C=C[C@H]3[C@H]1C5.O=S(=O)(O)O` [Morphine sulfate, reference compound], in series [8], the episodes of vomiting is recorded as 15 and the retches was found to be 157.
For `CC[C@H](C)c1cccc(C(C)C)c1O` [(S)-(+)-2-sec-butyl-6-isopropylphenol], the MTD in series [3] turned out to be 21 mg/kg. For the same molecule, the “HD50 (dose required to cause 50% of the rats to lose righting reflex)” value in series [4] turned out to be 5 mg/kg. Besides, the “HD7 min (dose required to produce 7 minutes of anesthesia)” value in series [4] was found to be 6.7 mg/kg. For the same molecule, the “TI (therapeutic index; ratio of MTD to HD7 min)” value in series [4] is 3.1. In addition, the deaths result in series [4] (6 rats per dose group, dose as stated) is “One of six rats died when administered 28 mg/kg”. Further, the “MAP % change from baseline” value in series [5] (10 mg/kg) is on record as “+3%”; in series [5] (15 mg/kg), “+1%”; in series [5] (30 mg/kg), −33%. Further, the “duration of anesthesia (sleep time)” value in series [7] (dogs, bolus IV, 5 mg/kg) is listed as 12 min; in series [7] (dogs, bolus IV, 10 mg/kg) it was 33 min; in series [7] (dogs, bolus IV, 15 mg/kg), 50 min; in series [7] (dogs, bolus IV, 30 mg/kg) it was 56 min.
